According to US20090142808A1, “NOVEL ENZYME WITH FRUCTOFURANOSIDASE ACTIVITY, WHICH IS USED TO OBTAIN PREBIOTIC OLIGOSACCHARIDES” (Consejo Superior de Investigaciones Cientificas, priority 2005, published 2009):

Key:
[1] = system: extracellular fraction of X. dendrorhous (fructofuranosidase activity); assay: Fructofuranosidase activity of the cell-free extracellular fraction on different carbohydrates (glucose release, glucose oxidase-peroxidase); format: biochemical, Xanthophyllomyces dendrorhous; settings: for Fructofuranosidase activity detected: cell-free fraction, compound used as substrate; for Specific activity: cell-free fraction of culture in maltose minimal medium, 2.37 ODU660 nm
Method: (§1) The cell-free fraction was obtained by centrifugation (F-0) of an X. dendrorhous culture grown at 23° C. and 160 rpm. Fructofuranosidase activity was assayed in this fraction by assessing the release of glucose on different substrates. A colorimetric assay and standard methodology were used. The released glucose was quantified using the glucose oxidase-peroxidase coupled reaction: 0.4 ml of the solution to be assayed was mixed with 0.1 ml of A:B solution (20:1) (A: 0.85 U/ml glucose oxidase, 0.40 U/ml peroxidase in sodium phosphate buffer pH 5; B: 0.6% o-dianisidine). It was incubated for 30 minutes at 37° C. and spectrophotometrically quantified at 450 nm. A standard glucose curve (1 to 100 μg/ml) was used. The fructofuranosidase activity unit is defined in μg/ml min of glucose assessed in the described conditions.
The cell-free fraction, obtained by centrifuging an X. dendrorhous culture in maltose minimal medium, grown to an optical density of 2.37 ODU660 nm, was assayed on different substrates.

[2] = system: X. dendrorhous F-3 fraction (purified fructofuranosidase); assay: Hydrolytic (fructofuranosidase) activity of the purified enzyme F-3 on different substrates; format: biochemical, Xanthophyllomyces dendrorhous; settings: for Hydrolytic activity observed: enzyme purified to homogeneity (F-3); for Specific activity: purified protein, 1% substrate
Method: as §1
The hydrolytic activity of the enzyme purified to homogeneity (F-3) following the described process was assayed on different substrates.

[3] = system: purified X. dendrorhous enzyme (F-3); assay: Fructosyltransferase activity: sucrose 600 g/l incubated with purified enzyme at 45° C., HPLC; format: biochemical, Xanthophyllomyces dendrorhous; settings: for Composition of the reaction mixture: 45° C., 600 g sucrose/l, 5 U/ml; for composition of the system at the end time: Example 8: 160 hours, 40° C. as printed (heading 45° C.), 200 rpm, FOS = tri- and tetrasaccharides
Method: (§2) A study was carried out using a high concentration of sucrose (600 g/l), conditions which can favor the formation of glycosidic bonds in detriment of hydrolysis. […] On one hand, fructose (peak 1) and glucose (peak 2) are formed as hydrolytic products. On the other hand, two trisaccharides are formed: a majority product (peak 4), which is most likely neokestose [β-D-Fru-(2→6)-α-D-Glu-(1→2)-D-Fru] (since it is the majority transfructosylation product described in X. dendrorhous cultures) and another minor product (peak 5), identified as 1-kestose [α-D-Glu-(1→2)-β-D-Fru(1→2)-β-D-Fru]. Small amounts of different compounds (peaks 6-8) which, taking into account the retention time in the column, are probably tetrasaccharides not yet identified, are furthermore observed. The sucrose which has not yet reacted corresponds to peak 3.
A solution with a high concentration of sucrose (600 g/l) in 0.2 M sodium acetate buffer pH 5.6 was prepared. 5 U/ml of fructofuranosidase (a unit U is the enzymatic activity corresponding to the release of a micromole of reducer sugars per minute using sucrose 100 g/l as a substrate in 0.2 M buffer sodium acetate pH 5.6 at 60° C.) were added. […] Aliquots were extracted at different times, incubated for 5 minutes at 80° C. to inactivate the enzyme, diluted 1:4 (v/v) with water, centrifuged for 5 min at 6000 rpm in an Eppendorf tube with a 0.45 μm filter and analyzed by HPLC liquid chromatography. The profile of the products formed can be seen in FIG. 5. […] Two trisaccharides are obtained: a majority product which is most likely neokestose [β-D-Fru-(2→6)-α-D-Glu-(1→2)-D-Fru] and another minor product identified as 1-kestose [α-D-Glu-(1→2)-β-D-Fru(1→2)-β-D-Fru]. At the end time (160 hours), the composition of the system was: 10.5% fructose, 17.6% glucose, 54.6% sucrose, 17.3% fructooligosaccharides (tri- and tetrasaccharides).

[4] = system: purified X. dendrorhous enzyme (F-3); assay: Fructosyltransferase activity: sucrose 600 g/l incubated with purified enzyme at 60° C., HPLC; format: biochemical, Xanthophyllomyces dendrorhous
Method: as §2
The total percentage (w/w) of fructooligosaccharides after 160 hours of reaction was the 9.7%, value relating to the total carbohydrates in the medium.

[5] = system: Whole X. dendrorhous cells; settings: cell suspension in phosphate-citrate buffer, 25° C., 11% sucrose; cited from earlier work
[6] = target: X. dendrorhous fructofuranosidase (Phaffia rhodozyma, UniProt B8YJM2); assay: Kinetic characterization of the purified enzyme on sucrose; format: biochemical, Xanthophyllomyces dendrorhous; settings: 20 minutes, 20 μl purified enzyme; standard error of the mean ±10
X. dendrorhous fructofuranosidase, sequence (B8YJM2 entry or part of it): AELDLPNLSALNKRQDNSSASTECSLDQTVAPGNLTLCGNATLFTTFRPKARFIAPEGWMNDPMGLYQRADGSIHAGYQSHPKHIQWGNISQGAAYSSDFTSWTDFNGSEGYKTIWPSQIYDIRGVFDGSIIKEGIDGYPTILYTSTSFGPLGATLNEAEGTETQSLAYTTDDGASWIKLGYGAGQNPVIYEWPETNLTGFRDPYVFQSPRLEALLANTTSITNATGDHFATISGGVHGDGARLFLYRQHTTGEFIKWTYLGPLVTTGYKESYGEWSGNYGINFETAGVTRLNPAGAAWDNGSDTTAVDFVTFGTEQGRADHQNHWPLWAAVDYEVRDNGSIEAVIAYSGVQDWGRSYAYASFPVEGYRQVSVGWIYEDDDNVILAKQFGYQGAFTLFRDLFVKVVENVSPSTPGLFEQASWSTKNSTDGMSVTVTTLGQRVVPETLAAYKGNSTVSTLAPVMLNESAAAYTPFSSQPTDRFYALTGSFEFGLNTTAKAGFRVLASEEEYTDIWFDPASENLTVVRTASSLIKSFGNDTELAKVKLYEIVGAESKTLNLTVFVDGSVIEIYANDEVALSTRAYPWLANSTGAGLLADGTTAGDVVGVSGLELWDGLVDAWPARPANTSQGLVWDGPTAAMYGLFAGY
Method: The kinetic characterization of the enzyme purified according to the described process was performed on sucrose. […] The assays were performed in 20 minutes and 20 μl of purified enzyme for each reaction according to the described process.

[7] = 160 h, new catalyst load (5 U) added after 140 hours
[8] = 186 h, new catalyst load (5 U) added after 140 hours
[9] = reaction time 24 h, 600 g sucrose/l, 5 U/ml
[10] = reaction time 140 h, 600 g sucrose/l, 5 U/ml
[11] = reaction time 160 h, 600 g sucrose/l, 5 U/ml

Compound | Fructofuranosidase activity detected [1] | Hydrolytic activity observed [2] | Composition of the reaction mixture ([3]; reaction time 24 h) [grams/liter] | Composition of the reaction mixture ([3]; reaction time 140 h) [grams/liter] | Composition of the reaction mixture ([3]; reaction time 160 h) [grams/liter] | Composition of the reaction mixture [4, 7] [grams/liter] | Composition of the reaction mixture [4, 8] [grams/liter] | Composition of the reaction mixture [4, 9] [grams/liter] | Composition of the reaction mixture [4, 10] [grams/liter] | Composition of the reaction mixture [4, 11] [grams/liter] | Specific activity [1] [mU/μg] | Specific activity [2] [U/μg] | also measured
OC[C@H]1O[C@H](O[C@H]2[C@H](O)[C@@H](O)C(O)O[C@@H]2CO)[C@H](O)[C@@H](O)[C@@H]1O (mixture of isomers) [maltose] | No activity was detected | No activity was observed | – | – | – | – | – | – | – | – | – | – | –
OC[C@H]1O[C@H](O[C@@H]2COC(O)(CO)[C@@H](O)[C@@H]2O)[C@H](O)[C@@H](O)[C@@H]1O (some centres unmarked) [leucrose] | No activity was detected | No activity was observed | – | – | – | – | – | – | – | – | – | – | –
OC[C@H]1O[C@@](CO)(OC[C@H]2O[C@H](O[C@]3(CO)O[C@H](CO)[C@@H](O)[C@@H]3O)[C@H](O)[C@@H](O)[C@@H]2O)[C@@H](O)[C@@H]1O [neokestose] | – | – | 20.5 | 47.4 | 53.3 | 41.6 | 43.9 | 25.8 | 34.3 | 36.5 | – | – | maximum of neokestose obtained [5]: 75.1 g/L
O=C[C@H](O)[C@@H](O)[C@H](O)[C@H](O)CO [glucose] | – | – | 37.8 | 106.8 | 109.3 | 119.5 | 131.2 | 53.2 | 79.3 | 84.3 | – | – | composition of the system at the end time [3]: 17.6%
maltotriose | No activity was detected | No activity was observed | – | – | – | – | – | – | – | – | – | – | –
OC[C@H]1O[C@H](OC[C@H]2OC(O)(CO)[C@@H](O)[C@@H]2O)[C@H](O)[C@@H](O)[C@@H]1O (some centres unmarked) [palatinose] | – | – | – | – | – | – | – | – | – | – | 217 | 5 | –
OC[C@H]1O[C@@](CO)(OC[C@@]2(OC[C@@]3(O[C@H]4O[C@H](CO)[C@@H](O)[C@H](O)[C@H]4O)O[C@H](CO)[C@@H](O)[C@@H]3O)O[C@H](CO)[C@@H](O)[C@@H]2O)[C@@H](O)[C@@H]1O [nistose] | – | – | – | – | – | – | – | – | – | – | 502 | 13 | –
O=C(CO)[C@@H](O)[C@H](O)[C@H](O)CO [fructose] | – | – | 19.0 | 63.5 | 65.1 | 56.5 | 76.0 | 36.8 | 40.9 | 41.2 | – | – | composition of the system at the end time [3]: 10.5%
OC[C@H]1O[C@@](CO)(OC[C@@]2(O[C@H]3O[C@H](CO)[C@@H](O)[C@H](O)[C@H]3O)O[C@H](CO)[C@@H](O)[C@@H]2O)[C@@H](O)[C@@H]1O [1-kestose] | – | – | 9.2 | 24.8 | 33.5 | 23.9 | 25.8 | 10.3 | 21.3 | 21.9 | 1675 | 41 | –
OC[C@H]1O[C@H](OC[C@H]2O[C@H](O[C@]3(CO)O[C@H](CO)[C@@H](O)[C@@H]3O)[C@H](O)[C@@H](O)[C@@H]2O)[C@H](O)[C@@H](O)[C@H]1O [raffinose] | – | – | – | – | – | – | – | – | – | – | 335 | 8 | –
OC[C@H]1O[C@@](CO)(O[C@H]2O[C@H](CO)[C@@H](O)[C@H](O)[C@H]2O)[C@@H](O)[C@@H]1O [sucrose] | – | – | 513.4 | 357.5 | 338.9 | 358.4 | 323.1 | 474.0 | 424.2 | 416.1 | 62140 | 675 | Km [6]: 4 mM; Vmax [6]: 947 μg glucose min^−1; kcat [6]: 2.35 s⁻¹; composition of the system at the end time [3]: 54.6%
OC[C@H]1O[C@H](O[C@H]2[C@H](O)[C@@H](O)[C@@H](O[C@H]3[C@H](O)[C@@H](O)[C@@H](O[C@H]4[C@H](O)[C@@H](O)[C@@H](O[C@H]5[C@H](O)[C@@H](O)[C@@H](O[C@H]6[C@H](O)[C@@H](O)[C@@H](O[C@H]7[C@H](O)[C@@H](O)C(O)O[C@@H]7CO)O[C@@H]6CO)O[C@@H]5CO)O[C@@H]4CO)O[C@@H]3CO)O[C@@H]2CO)[C@H](O)[C@@H](O)[C@@H]1O (some centres unmarked) [maltoheptose] | No activity was detected | No activity was observed | – | – | – | – | – | – | – | – | – | – | –
